The text below walks through data of patent US8507472B2 (priority 2010, dated 2013).

For one data set, the system named is Leptosphaeria nodorum. The data set can be described thus: Leptosphaeria nodorum test (wheat)/protective. The class given is in vivo. The procedure, abridged: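 Young wheat plants were sprayed protectively, then inoculated 1 day later with L. nodorum spores and held 48 h at 100% humidity and 22° C. They were then kept in a greenhouse at 90% humidity and 22° C. Efficacy was scored 7-9 days post-inoculation, where 0% equals control and 100% means no infection.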

In a further data set the test system is Cochliobolus miyabeanus. Description: Cochliobolus test (rice)/protective. The class given is in vivo. The following applies: 250 ppm active compound, protective, evaluation 4 days after inoculation.
In the next data set the test system is Puccinia triticina. Description: Puccinia triticina test (wheat)/protective. In kind it is in vivo. The essentials: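 Protective test: young wheat plants sprayed with compound (dimethylacetamide/alkylaryl polyglycol ether formulation, water-diluted) at stated rate, then inoculated with Puccinia triticina spores once dry; 48 h at 20 °C, 100% RH, then greenhouse ~20 °C, ~80% RH. Efficacy scored 8 days post-inoculation, 0% = control, 100% = no infection.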

A further data set deals with Septoria tritici. The data set can be described thus: Septoria tritici test (wheat)/protective. In kind it is in vivo. The procedure, abridged: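 Young wheat plants were sprayed protectively with compound (dimethylacetamide/emulsifier formulation diluted in water), then inoculated with Septoria tritici spores after drying. Incubation was 48 hours at 20° C and 100% humidity, then 60 hours at 15° C and 100% humidity, then greenhouse at about 15° C, 80% humidity; efficacy was scored 21 days post-inoculation (0% = control, 100% = no infection).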

The subject of the next data set is Pyrenophora teres. The data set can be described thus: Pyrenophora teres test (barley)/protective. The class given is in vivo. The essentials:
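Efficacy, read 7-9 days after spore inoculation, runs from 0% (equal to untreated control) to 100% (no infection). Barley sprayed with water-diluted DMF/emulsifier formulation was inoculated one day later, incubated 48 h at 22° C. and 100% rel. humidity, then held at 20° C. and 80% humidity.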

Another data set concerns Uromyces appendiculatus. Description: Uromyces test (bean)/protective. In kind it is in vivo. The procedure, abridged: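 Young bean plants sprayed with compound formulated in acetone/dimethylacetamide with emulsifier, inoculated with Uromyces appendiculatus spores after drying, held 1 day at ~20 °C and 100% humidity, then greenhouse ~21 °C, ~90% humidity. Efficacy scored 10 days post-inoculation, 0% = untreated control, 100% = no infection.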

Data set [1] concerns Fusarium graminearum. Description: microbe, parasite or virus in culture. The class given is cell-based.
The subject of the next data set is Phytophthora infestans. The class given is in vivo.
For a further data set, the system named is Pyricularia oryzae. The conditions noted are these: in vivo.
In a further data set the test system is Botrytis cinerea. The data set can be described thus: Botrytis test (bean)/protective. In kind it is in vivo. The following applies: 100 ppm active compound, protective, evaluation 2 days after inoculation. The procedure, abridged: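 Protective spray test: leaves inoculated with two B. cinerea-colonized agar plugs after the spray dried, then incubated in darkness, ~20° C., 100% relative humidity. Formulation was acetone/dimethylacetamide with emulsifier, water-diluted. Lesion size rated 2 days post-inoculation as efficacy (0% matching control, 100% infection-free).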

The subject of another data set is Venturia inaequalis. The data set can be described thus: Venturia test (apple)/protective. In kind it is in vivo. The conditions noted are these: 100 ppm active compound, protective, evaluation 10 days after inoculation. The procedure, abridged: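 Efficacy read 10 days after inoculation, where 100% is no infection and 0% matches untreated control. Plants kept 1 day at ~20° C and 100% relative humidity after conidia inoculation, then ~21° C and ~90% humidity; inoculation followed drying of a protective spray of compound formulated in acetone/dimethylacetamide plus emulsifier and diluted with water.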

For another data set, the system named is Rhizoctonia solani. The data set can be described thus: Rhizoctonia test (rice)/protective. In kind it is in vivo. The following applies: 250 ppm active compound, protective, evaluation 4 days after inoculation. How it is done:
Solvent: 28.5 parts by weight of acetone
Emulsifier: 1.5 parts by weight of alkylaryl polyglycol ether
To produce a suitable preparation of active compound, 1 part by weight of active compound is mixed with the stated amount of solvent, and the concentrate is diluted with water and the stated amount of emulsifier to the desired concentration.
To test for protective activity, young rice plants are sprayed with the active compound preparation at the stated application rate. 1 day after the treatment, the plants are inoculated with hyphae of Rhizoctonia solani. The plants are then placed in a greenhouse at 100% relative atmospheric humidity and 25° C.
Evaluation is carried out 4 days after the inoculation. 0% means an efficacy which corresponds to that of the control, whereas an efficacy of 100% means that no infection is observed.

For data set [2], the system named is Fusarium graminearum. In kind it is in vivo.
Another data set has as its system DON/AcDON production. The data set can be described thus: microbe, parasite or virus in culture. In kind it is cell-based, Fusarium graminearum. The following applies: 7 days at 28° C.
The subject of data set [3] is Fusarium nivale (var. majus). The data set can be described thus: Fusarium nivale (var. majus) test (wheat)/protective. In kind it is in vivo. The following applies: 1000 ppm active compound, protective, evaluation 5 days after inoculation. The essentials: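 Protective spray of young wheat plants at the stated rate (compound in dimethylacetamide with emulsifier, diluted in water), then inoculation with Fusarium nivale spores once dry. Plants kept at 10 °C and 100% humidity; scored 5 days after inoculation as % efficacy, where 0% equals untreated control and 100% means no infection.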

Another data set relates to Sphaerotheca fuliginea. The data set can be described thus: Sphaerotheca test (cucumber)/protective. In kind it is in vivo. The essentials: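 Infection was rated 7 days after spore inoculation as % efficacy (0% = control level, 100% = no disease). Inoculation followed 1 day after preventive spray of young cucumbers with compound formulated in N,N-dimethylformamide plus emulsifier and diluted with water; plants were held at 23 °C and 70% relative humidity.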

The test system of another data set is Alternaria solani. Description: Alternaria test (tomato)/protective. In kind it is in vivo. The essentials:
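Treatment was protective: spray application at the stated rate came one day before spore inoculation. Incubation was 24 h at 22 °C and 100% humidity, then 20 °C and 96% humidity. Infection was rated at day 7 as % efficacy against the control, with 100% meaning no disease.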

The next data set concerns Gibberella zeae. The following applies: in vivo.
Data set [4] in a line: log P determination by HPLC retention times (alkan-2-one calibration).
[5] abbreviates: 500 ppm active compound, tomato, protective, evaluation 7 days after inoculation.

Each structure is given as a SMILES string. Several values for one entry are separate records, joined by “and”; a condition that tells them apart may be missing. Equal values may be shown once. Read-outs that look alike come from different tables or passages of the source.

With `CC(C)CC(=O)Nc1cc(-c2c(-c3ccc(F)cc3)nn3c2CCCC3)ccn1` [Example 30], the efficacy in % in the data set with Leptosphaeria nodorum (in vivo) was 90%; in the data set on Cochliobolus miyabeanus it was 96%; with Puccinia triticina (in vivo), 88%; in the data set with Septoria tritici (in vivo), 100%; with Pyrenophora teres (in vivo), 100%; in the data set with Uromyces appendiculatus (in vivo), 95%. For the same compound, the efficacy in % in the data set on Phytophthora infestans (in vivo) amounted to 80%; in the data set on Pyricularia oryzae it was 94%; with Botrytis cinerea, 100%; with Venturia inaequalis, 99%; in the data set with Rhizoctonia solani it was 100%; in the data set on Fusarium graminearum [2] (in vivo) it was 88%. The efficacy in % in data set [3] turned out to be 86%; in the data set on Sphaerotheca fuliginea (in vivo), 95%; in the data set on Alternaria solani (in vivo) it was 100%. For the same compound, the “% inhibition of the fungal growth of Fusarium graminearum at 50 μM” value (from here on “% inhibition of the fungal growth … at 50 μM”) in the data set on Fusarium graminearum [1] is 88%. Further, the “% inhibition of DON/AcDON at 50 μM” value with DON/AcDON production amounted to 99%.
Take `CC(=O)Nc1cc(-c2c(-c3ccccc3)nn3c2CCCC3)ccn1` [Example 19]: the efficacy in % in the data set with Leptosphaeria nodorum (in vivo) is 95%; in the data set with Cochliobolus miyabeanus it was 96%; with Puccinia triticina (in vivo), 100% and 95%; in the data set with Septoria tritici (in vivo), 100%; in the data set with Pyrenophora teres (in vivo), 100%; in the data set on Uromyces appendiculatus (in vivo) it was 94%. The efficacy in % was found to be 100% with Phytophthora infestans (in vivo); 92% in the data set on Pyricularia oryzae; 99% in the data set on Botrytis cinerea; 93% in the data set with Venturia inaequalis; 100% in the data set with Rhizoctonia solani; 100% in the data set with Fusarium graminearum [2] (in vivo). Moreover, the efficacy in % in [3] is recorded as 100%; with Sphaerotheca fuliginea (in vivo) it was 98%; with Alternaria solani (in vivo) it was 100%. Moreover, the “% inhibition of the fungal growth … at 50 μM” value in the data set with Fusarium graminearum [1] came to 100%. Moreover, in the data set on DON/AcDON production, the “% inhibition of DON/AcDON at 50 μM” value is given as 100%.
With `CC(C)C(=O)Nc1cc(-c2c(-c3ccc(F)cc3)nn3c2CCCC3)ccn1` [Example 28], the efficacy in % was determined as 90% in the data set on Leptosphaeria nodorum (in vivo); 95% with Cochliobolus miyabeanus; 85% in the data set with Gibberella zeae; 100% in the data set on Puccinia triticina (in vivo); 100% with Septoria tritici (in vivo); 100% in the data set on Pyrenophora teres (in vivo). The efficacy in % with Uromyces appendiculatus (in vivo) is given as 95%; in the data set on Phytophthora infestans (in vivo), 95%; in the data set with Pyricularia oryzae it was 90%; in the data set with Botrytis cinerea, 95%; in the data set with Venturia inaequalis it was 100%; in the data set on Rhizoctonia solani, 100%. Besides, the efficacy in % (with Fusarium graminearum [2] (in vivo); in data set [3]; with Sphaerotheca fuliginea (in vivo); with Alternaria solani (in vivo)) was 100% throughout. For the same compound, the “% inhibition of the fungal growth … at 50 μM” value in the data set with Fusarium graminearum [1] was found to be 100%. The “% inhibition of DON/AcDON at 50 μM” value in the data set on DON/AcDON production was found to be 99%.
With `O=C(Nc1cc(-c2c(-c3ccccc3)nn3c2CCCC3)ccn1)C1CC1` [Example 21], the efficacy in % in the data set on Leptosphaeria nodorum (in vivo) was 95%; in the data set on Cochliobolus miyabeanus, 96%; with Puccinia triticina (in vivo), 95%; in the data set on Septoria tritici (in vivo), 100%; with Pyrenophora teres (in vivo), 100%; with Uromyces appendiculatus (in vivo), 94%. For the same compound, the efficacy in % was determined as 90% in the data set on Phytophthora infestans (in vivo); 98% with Pyricularia oryzae; 98% in the data set on Botrytis cinerea; 99% with Venturia inaequalis; 100% with Rhizoctonia solani; 100% with Fusarium graminearum [2] (in vivo). The efficacy in % (in data set [3]; in the data set on Sphaerotheca fuliginea (in vivo); in the data set on Alternaria solani (in vivo)) was 100% each time. Also, the “% inhibition of the fungal growth … at 50 μM” value with Fusarium graminearum [1] was determined as 97%. In addition, the “% inhibition of DON/AcDON at 50 μM” value in the data set with DON/AcDON production turned out to be 100%.
On to `O=C(Nc1cc(-c2c(-c3ccc(F)cc3)nn3c2CCCC3)ccn1)C1CC1` [Example 20], for which the efficacy in % in the data set on Leptosphaeria nodorum (in vivo) was determined as 95%; with Cochliobolus miyabeanus it was 96%; in the data set with Puccinia triticina (in vivo), 100%; with Pyrenophora teres (in vivo), 100%; in the data set with Uromyces appendiculatus (in vivo), 94%; in the data set on Phytophthora infestans (in vivo), 100%. For the same compound, the efficacy in % is recorded as 92% with Pyricularia oryzae; 98% in the data set with Botrytis cinerea; 99% with Venturia inaequalis; 100% with Rhizoctonia solani; 94% with Fusarium graminearum [2] (in vivo); 100% in data set [3]. In addition, the efficacy in % with Sphaerotheca fuliginea (in vivo) and in the data set with Alternaria solani (in vivo) was 100% in each case. In addition, in the data set on Fusarium graminearum [1], the “% inhibition of the fungal growth … at 50 μM” value is 95%. Besides, the “% inhibition of DON/AcDON at 50 μM” value in the data set with DON/AcDON production was found to be 100%.
Usually chromatographic logP stands for a lipophilicity value derived from retention on a column. In general, inhibition refers to the drop in the measured response relative to a control, in per cent. In the case of `COC(=O)Nc1cc(-c2c(-c3ccc(F)cc3)nn3c2CCCC3)ccn1` [Example 26, Methyl{4-[2-(4-fluorophenyl)-4,5,6,7-tetrahydropyrazolo[1,5-a]pyridin-3-yl]-pyridin-2-yl}carbamate], the efficacy in % in the data set on Leptosphaeria nodorum (500 ppm active compound, wheat, protective, evaluation 7-9 days after inoculation) came out at 80%; in the data set with Puccinia triticina (1000 ppm active compound, wheat, protective, evaluation 8 days after inoculation), 100%; with Septoria tritici (1000 ppm active compound, wheat, protective, evaluation 21 days after inoculation), 86%; with Pyrenophora teres (500 ppm active compound, barley, protective, evaluation 7-9 days after inoculation), 95%; in the data set with Uromyces appendiculatus (100 ppm active compound, bean, protective, evaluation 10 days after inoculation) it was 94%; in the data set with Phytophthora infestans (setting [5]) it was 95%. Further, the efficacy in % in the data set with Botrytis cinerea is reported as 93%; in the data set with Venturia inaequalis, 93%; in the data set with Fusarium graminearum [2] (1000 ppm active compound, barley, protective, evaluation 5 days after inoculation) it was 88%; in [3], 86%; with Sphaerotheca fuliginea (500 ppm active compound, cucumber, protective, evaluation 7 days after inoculation), 98%; in the data set with Alternaria solani (setting [5]) it was 100%. The chromatographic logP in [4] (log P(HCOOH), HCOOH, preparation examples in the text) was determined as 2.11; in [4] (log P, values marked [a] in Table 1), 2.11; in data set [4] (log P, values marked [b] in Table 1) it was 2.56. The inhibition at 50 µM in the data set on Fusarium graminearum [1] (Fusarium graminearum, 72 h, read-out: % inhibition of the fungal growth of Fusarium graminearum at 50 μM) came out at 57%; with DON/AcDON production (Fusarium graminearum, 168 h) it was 98%.
